In US11396531B2, “Antimicrobial peptides comprising epsilon lysine residues” (priority 2016, dated 2022):
In brackets after ≈: the same amount, converted by molar mass. No end group written: not given here.

How the values were obtained:
[1] = tested on: P. aeruginosa; assay type: cell-based, Pseudomonas aeruginosa; conditions: P. aeruginosa (n = 22)
Description: (§1) MIC of cationic polymers and polypeptide were tested in accordance with the Clinical and Laboratory Standards Institute (CLSI) guidelines against a panel of antibiotic-susceptible/-resistant bacteria, yeasts and fungal strains. Bacterial and yeast strains were cultured on tryptic soy agar (TSA) and Sabaroud dextrose agar (SDA) plates (Neogen Corporation, MI, USA) overnight respectively. Inocula in Mueller-Hinton broth (MHB) for bacteria and SD broth for C. albicans (Beckton Dickinson, MD, USA) were prepared at 0.5 McFarland. The suspensions were then diluted to a final concentration of 10^5 CFU/ml in a 96-well microtitre plate (SPL Life Sciences Co., Ltd, Korea). Polymers and polypeptides were added to the inoculum in 2-fold serial dilutions to give a range of concentrations from 2-1024 μg/ml. […] The antimicrobial activities were compared with topical antiseptic agents, BAK and CHX. A similar protocol was used to determine the MIC of εPL against antibiotic-resistant pathogens. MIC of the polymers and polypeptides against Fusarium strains was determined in full strength RPMI-1640 buffer. Fungal spores were recovered from a 5-day old culture on a potato dextrose agar and diluted to a concentration of 10^5 spores/ml in 0.9% saline solution. A further 50-fold dilution was done in RPMI-1640 buffer and 100 μl of the inoculum was added to 96 well plates containing an equal volume of test peptides at 2-fold serial dilutions. 200 μl of inoculum without any additives and buffer alone served as positive and negative controls, respectively. The plate was then incubated at 30° C. for 48 h. The absorbance value was measured at 600 nm as before and the lowest concentration of the peptide which inhibited 90% growth was reported. All MIC determinations were performed in duplicates.
(§2) MICs of polymers/antibiotics were determined using the microdilution method in 96 well microtitre plates (SPL Life Sciences Co., Ltd, Korea), following the guidelines of Clinical and Laboratory Standards Institute (CLSI) document M100-S18. […]

[2] = tested on: S. aureus; test: microbe, parasite or virus in culture; assay type: cell-based, Staphylococcus aureus; conditions: S. aureus (n = 6)
Description: as §1
(§3) MICs of polymers/antibiotics were determined using the microdilution method in 96 well microtitre plates (SPL Life Sciences Co., Ltd, Korea), following the guidelines of Clinical and Laboratory Standards Institute (CLSI) document M100-S18. Briefly, polymers (1-512 μg/ml) or antibiotics were dissolved in appropriate media (Mueller Hinton broth, MHB for bacteria; Sabaroud's Dextrose (SD) broth for yeasts and RPMI buffer for Fusarium strains) and 100 μl of this was then mixed with an equal volume of microbial inoculum (OD600=˜0.08) in the same media and shaken in a closed incubator.

[3] = tested on: K. pneumoniae; test: microbe, parasite or virus in culture; assay type: cell-based, Klebsiella pneumoniae; conditions: K. pneumonia (n = 4)
Description: as §1, §3

[4] = tested on: E. coli; test: microbe, parasite or virus in culture; assay type: cell-based, Escherichia coli; conditions: E. coli (n = 3)
Description: as §1, §3

[5] = tested on: A. baumannii; test: microbe, parasite or virus in culture; conditions: A. baumanii (n = 3)
Description: as §1, with “Korea).” for “Korea). Polymers and polypeptides were added to the inoculum in 2-fold serial dilutions to give a range of concentrations from 2-1024 μg/ml.”
as §3

[6] = tested on: Carbapenam-resistant Enterobacter strains (CRE); test: microbe, parasite or virus in culture; conditions: CRE strains (n = 4)
Description: as §1, with “Korea).” for “Korea). Polymers and polypeptides were added to the inoculum in 2-fold serial dilutions to give a range of concentrations from 2-1024 μg/ml.”
as §3

[7] = tested on: E. cloacae complex; test: microbe, parasite or virus in culture; conditions: E. clocae complex (n = 4)
Description: as §1, with “Korea).” for “Korea). Polymers and polypeptides were added to the inoculum in 2-fold serial dilutions to give a range of concentrations from 2-1024 μg/ml.”
as §3

[8] = tested on: MRSA; assay type: cell-based, Staphylococcus aureus; conditions: MRSA (n = 9)
Description: as §1, §3

[9] = tested on: C. albicans; conditions: C. albicans (n = 5)
Description: as §1, with “Korea).” for “Korea). Polymers and polypeptides were added to the inoculum in 2-fold serial dilutions to give a range of concentrations from 2-1024 μg/ml.”
as §3

[10] = tested on: Vancomycin-resistant Enterococcus (VRE); conditions: VRE (n = 3)
Description: as §1, with “Korea).” for “Korea). Polymers and polypeptides were added to the inoculum in 2-fold serial dilutions to give a range of concentrations from 2-1024 μg/ml.”
as §3

[11] = tested on: T-cell lymphomas (HuT78, MJ, HH) and B-cell lymphomas (Ly-4 and Ly-18); test: Anticancer properties of hypercharged peptides (MTS); assay type: cell-based, human; conditions: 62.5-500 μg/ml
Description: The hyper-charged peptides were screened for their anticancer properties using cell lines derived from patients with various forms of cutaneous lymphomas, including T-cell lymphomas (HuT78, MJ, HH) and B-cell lymphomas (Ly-4 and Ly-18). The relative cytotoxicity of these peptides was also assessed in healthy primary peripheral blood lymphocyte (PBL) T-cells. Cytotoxicity was measured as the mitochondrial function by metabolic reduction of MTS.

[12] = tested on: F. solani and F. oxysporum; test: Minimum inhibitory concentration (MIC) determination, Fusarium strains; assay type: cell-based; conditions: F. solani and F. oxysporum (n = 6)
Description: MIC of cationic polymers and polypeptide were tested in accordance with the Clinical and Laboratory Standards Institute (CLSI) guidelines against a panel of antibiotic-susceptible/-resistant bacteria, yeasts and fungal strains. Bacterial and yeast strains were cultured on tryptic soy agar (TSA) and Sabaroud dextrose agar (SDA) plates (Neogen Corporation, MI, USA) overnight respectively. Inocula in Mueller-Hinton broth (MHB) for bacteria and SD broth for C. albicans (Beckton Dickinson, MD, USA) were prepared at 0.5 McFarland. The suspensions were then diluted to a final concentration of 10^5 CFU/ml in a 96-well microtitre plate (SPL Life Sciences Co., Ltd, Korea). Polymers and polypeptides were added to the inoculum in 2-fold serial dilutions to give a range of concentrations from 2-1024 μg/ml. […] The antimicrobial activities were compared with topical antiseptic agents, BAK and CHX. […] MIC of the polymers and polypeptides against Fusarium strains was determined in full strength RPMI-1640 buffer. […] The absorbance value was measured at 600 nm as before and the lowest concentration of the peptide which inhibited 90% growth was reported. […]
as §2

[13] = tested on: P. aeruginosa ATCC 9027; test: Antimicrobial activity of the peptides in trypsin; assay type: cell-based, Pseudomonas aeruginosa; conditions: trypsin:peptide 1:100, 37° C.
Description: To determine the antimicrobial activity of the peptides in the presence of proteases, 1 mg/ml of HC1 and HC2 were incubated with trypsin enzyme:peptide weight ratio 1:100) for 1 h at 37° C. After this, a 20 μl aliquot of this solution was mixed 180 μl of bacterial inoculum (P. aeruginosa ATCC 9027, 10^5 CFU/ml in MHB) and incubated at room temperature for 6 h. 100 μL aliquots of the suspension was diluted serially (10-fold) in 10 mM PBS solution and pour plated on MH agar plates and incubated at 37° C. for 48 h and colony forming units per ml (CFU/ml) are enumerated.

Compound	MIC [1]	MIC [2]	MIC [3]	MIC [4]	MIC [5]	MIC [6]	MIC [7]	MIC [8]	MIC [9]	MIC [10]	cell killing in lymphoma cell lines [11]	MIC [12]	decrease in the bacterial viability after incubation with trypsin for 1 hour [13]
N=C(N)NCCC[C@H](NC(=O)[C@H](N)CCCCNC(=O)[C@H](CCCNC(=N)N)NC(=O)[C@H](N)CCCCNC(=O)[C@H](CCCNC(=N)N)NC(=O)[C@H](N)CCCCNC(=O)[C@H](CCCNC(=N)N)NC(=O)[C@H](N)CCCCNC(=O)[C@H](CCCNC(=N)N)NC(=O)[C@H](N)CCCCNC(=O)[C@H](CCCNC(=N)N)NC(=O)[C@H](N)CCCCN)C(=O)O [HC6, kRkRkRkRkRkR]	32 to 64 mg/L	32 to 64 mg/L	32 to 128 mg/L	16 mg/L (≈ 9.28 µM)	16 to 64 mg/L	64 to 128 mg/L	64 to 128 mg/L	16 to 32 mg/L	16 to 32 mg/L	16 mg/L (≈ 9.28 µM)	varying degrees of cell killing	–	–
C[C@@H]1C/C=C/C=C/C=C/C=C/[C@H](O[C@@H]2O[C@H](C)[C@@H](O)[C@H](N)[C@@H]2O)C[C@@H]2O[C@](O)(C[C@@H](O)C[C@H]3O[C@@H]3/C=C/C(=O)O1)C[C@H](O)[C@H]2C(=O)O [Natamycin]	–	–	–	–	–	–	–	–	–	–	–	8000 to 16000 mg/L (≈ 12000 to 24000 µM)	–
KRKRKRKRKRKR [HC1, KRKRKRKRKRKR]	32 to 128 mg/L	32 to 64 mg/L	64 mg/L	16 mg/L	64 to 128 mg/L	64 to 128 mg/L	64 to 128 mg/L	16 to 64 mg/L	64 to 128 mg/L	16 to 32 mg/L	varying degrees of cell killing	–	complete loss of activity
